Laboratory results from paper PMC10743429, “Anti-Inflammatory Effects of Alphitolic Acid Isolated from Agrimonia coreana Nakai Extracts Are Mediated via the Inhibition of ICRAC Activity in T Cells” (International Journal of Molecular Sciences, 2023).

Biological target: T1, ORAI1 (Homo sapiens, UniProt Q96D31)
T1 construct: ORAI1 transiently co-transfected with STIM1 in HEK293T cells; with STIM1
Assay: patch-clamp of ICRAC in HEK293T cells co-expressing ORAI1 and STIM1
Format: cell-based

T1 sequence (Q96D31 whole entry): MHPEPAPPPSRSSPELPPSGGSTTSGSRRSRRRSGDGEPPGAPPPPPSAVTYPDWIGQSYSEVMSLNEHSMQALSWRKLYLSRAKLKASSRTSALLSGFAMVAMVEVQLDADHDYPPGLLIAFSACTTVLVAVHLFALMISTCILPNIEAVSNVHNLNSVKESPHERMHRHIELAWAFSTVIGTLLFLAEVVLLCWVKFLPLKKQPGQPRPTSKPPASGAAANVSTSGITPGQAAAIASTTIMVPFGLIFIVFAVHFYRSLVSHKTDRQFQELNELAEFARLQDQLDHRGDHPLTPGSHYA
T1 sequence (Q13586 23-685 partner): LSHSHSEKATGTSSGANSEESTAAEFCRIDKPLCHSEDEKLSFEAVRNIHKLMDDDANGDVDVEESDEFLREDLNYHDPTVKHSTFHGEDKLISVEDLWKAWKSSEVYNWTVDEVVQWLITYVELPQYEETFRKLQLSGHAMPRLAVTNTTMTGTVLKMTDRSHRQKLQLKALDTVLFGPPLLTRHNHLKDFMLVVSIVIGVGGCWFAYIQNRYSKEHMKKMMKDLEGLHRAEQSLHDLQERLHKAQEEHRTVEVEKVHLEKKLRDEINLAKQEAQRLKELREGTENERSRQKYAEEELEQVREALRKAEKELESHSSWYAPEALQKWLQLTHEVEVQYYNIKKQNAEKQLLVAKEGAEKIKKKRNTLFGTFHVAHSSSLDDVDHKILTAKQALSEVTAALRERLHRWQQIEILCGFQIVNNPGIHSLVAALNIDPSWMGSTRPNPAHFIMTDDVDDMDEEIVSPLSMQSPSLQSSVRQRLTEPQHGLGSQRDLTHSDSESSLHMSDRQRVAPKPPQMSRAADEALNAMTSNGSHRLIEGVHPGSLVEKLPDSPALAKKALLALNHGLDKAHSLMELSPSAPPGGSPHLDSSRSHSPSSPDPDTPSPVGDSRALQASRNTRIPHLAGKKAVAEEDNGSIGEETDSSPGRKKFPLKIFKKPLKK

With `C=C(C)[C@@H]1CC[C@]2(C(=O)O)CC[C@]3(C)[C@H](CC[C@@H]4[C@@]5(C)C[C@@H](O)[C@H](O)C(C)(C)[C@@H]5CC[C@]43C)[C@@H]12` [compound 1, alphitolic acid] the IC50 was 17.5 ± 2.46 µM.
